This note sets out measurements from patent US10294229B2, “Heteroaryl substituted aminopyridine compounds” (BRISTOL-MYERS SQUIBB COMPANY, priority 2015, dated 2019).

SMILES strings stand for the structures.

IRAK4, sequence (Q9NWZ3 whole entry, species assumed): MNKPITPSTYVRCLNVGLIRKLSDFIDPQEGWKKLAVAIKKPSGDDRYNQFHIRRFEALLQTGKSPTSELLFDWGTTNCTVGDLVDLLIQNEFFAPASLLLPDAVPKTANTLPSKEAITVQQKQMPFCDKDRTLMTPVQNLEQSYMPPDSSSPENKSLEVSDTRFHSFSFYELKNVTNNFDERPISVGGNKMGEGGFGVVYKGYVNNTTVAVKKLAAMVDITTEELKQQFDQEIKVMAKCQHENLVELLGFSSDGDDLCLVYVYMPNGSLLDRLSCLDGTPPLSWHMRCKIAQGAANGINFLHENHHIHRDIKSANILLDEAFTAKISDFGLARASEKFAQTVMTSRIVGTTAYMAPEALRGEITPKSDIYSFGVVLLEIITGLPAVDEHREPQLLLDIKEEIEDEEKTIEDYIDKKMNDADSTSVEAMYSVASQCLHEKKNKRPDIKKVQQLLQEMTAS

In this test the target is IRAK4 (Homo sapiens (Human), UniProt Q9NWZ3). In words: IRAK4 Inhibition Assay. In kind it is biochemical. The note with it: ATP 500 μM; IRAK4 0.6 nM. The method in brief:
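Mobility-shift kinase assay: 0.6 nM IRAK4, 500 μM ATP, 1.5 μM fluorescent peptide, 60 min, room temperature. Percent inhibition was normalised between enzyme-free and DMSO-only wells.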
A word on the IC50: it is the midpoint of a concentration-inhibition curve. In the case of `CC(C)Nc1cc(-n2ncc3cc(C#N)cnc32)ncc1-n1ccc(CC#N)n1` [Example 250, 1-(5-(3-(cyanomethyl)-1H-pyrazol-1-yl)-4-(isopropylamino)pyridin-2-yl)-1H-pyrazolo[3,4-b]pyridine-5-carbonitrile], the IC50 turned out to be 196 nM. For `CC(C)Nc1cc(-n2ncc3cc(C#N)cnc32)ncc1-n1cc(CCCN)cn1` [Example 251, 1-(5-(4-(3-aminopropyl)-1H-pyrazol-1-yl)-4-(isopropylamino)pyridin-2-yl)-1H-pyrazolo[3,4-b]pyridine-5-carbonitrile] the value was 39 nM; for `CC(C)Nc1cc(-n2ncc3cc(C#N)cnc32)ncc1-c1cnn(CCO)c1` [Example 252, 1-(5-(1-(2-hydroxyethyl)-1H-pyrazol-4-yl)-4-(isopropylamino)pyridin-2-yl)-1H-pyrazolo[3,4-b]pyridine-5-carbonitrile], 119 nM; for `CCn1cc(-c2cnc(-n3ncc4cc(C#N)cnc43)cc2NC(C)C)cn1` [Example 253, 1-(5-(1-ethyl-1H-pyrazol-4-yl)-4-(isopropylamino)pyridin-2-yl)-1H-pyrazolo[3,4-b]pyridine-5-carbonitrile], 65 nM.

As to `CC(C)Nc1cc(-n2ncc3cc(C#N)cnc32)ncc1-c1cnn(CC2COC2)c1` [Example 254, 1-(4-(isopropylamino)-5-(1-(oxetan-3-ylmethyl)-1H-pyrazol-4-yl)pyridin-2-yl)-1H-pyrazolo[3,4-b]pyridine-5-carbonitrile], the IC50 turned out to be 190 nM. The value for `CC(C)Nc1cc(-n2ncc3cc(C#N)cnc32)ncc1-c1cnn(CC(F)(F)F)c1` [Example 255, 1-(4-(isopropylamino)-5-(1-(2,2,2-trifluoroethyl)-1H-pyrazol-4-yl)pyridin-2-yl)-1H-pyrazolo[3,4-b]pyridine-5-carbonitrile] was 39 nM; that for `CC(C)Nc1cc(-n2ncc3cc(C#N)cnc32)ncc1-c1cnn(C2CCOCC2)c1` [Example 257, 1-(4-(isopropylamino)-5-(1-(tetrahydro-2H-pyran-4-yl)-1H-pyrazol-4-yl)pyridin-2-yl)-1H-pyrazolo[3,4-b]pyridine-5-carbonitrile] was 20 nM. The value for `CC(C)Nc1cc(-n2ncc3cc(C#N)cnc32)ncc1-c1cnn(C2CC2)c1` [Example 259, 1-(5-(1-cyclopropyl-1H-pyrazol-4-yl)-4-(isopropylamino)pyridin-2-yl)-1H-pyrazolo[3,4-b]pyridine-5-carbonitrile] was 153 nM.

Regarding `CC(C)Nc1cc(-n2ncc3cc(C#N)cnc32)ncc1-c1cnn(C(F)F)c1` [Example 260, 1-(5-(1-(difluoromethyl)-1H-pyrazol-4-yl)-4-(isopropylamino)pyridin-2-yl)-1H-pyrazolo[3,4-b]pyridine-5-carbonitrile], the IC50 came out at 146 nM.

As for `CCCn1cc(-c2cnc(-n3ncc4cc(C#N)cnc43)cc2NC(C)C)cn1` [Example 261, 1-(4-(isopropylamino)-5-(1-propyl-1H-pyrazol-4-yl)pyridin-2-yl)-1H-pyrazolo[3,4-b]pyridine-5-carbonitrile], the IC50 is 29 nM.

In the case of `CC(C)Nc1cc(-n2ncc3cncnc32)ncc1-c1cnn(CC(F)(F)F)c1` [Example 262, N-isopropyl-2-(1H-pyrazolo[3,4-d]pyrimidin-1-yl)-5-(1-(2,2,2-trifluoroethyl)-1H-pyrazol-4-yl)pyridin-4-amine], the IC50 came to 288 nM. For `COCc1cn(-c2cnc(-n3ncc4cc(C#N)cnc43)cc2NC(C)C)nn1` [Example 267, 1-(4-(isopropylamino)-5-(4-(methoxymethyl)-1H-1,2,3-triazol-1-yl)pyridin-2-yl)-1H-pyrazolo [3,4-b]pyridine-5-carbonitrile], the IC50 amounted to 83 nM. The value for `CC(O)Cc1cn(-c2cnc(-n3ncc4cc(C#N)cnc43)cc2NC(C)C)nn1` (centres unmarked) [Example 268, 1-(5-(4-(2-hydroxypropyl)-1H-1,2,3-triazol-1-yl)-4-(isopropylamino)pyridin-2-yl)-1H-pyrazolo[3,4-b]pyridine-5-carbonitrile] was 38 nM; that for `CCCc1cn(-c2cnc(-n3ncc4cncnc43)cc2Nc2cnn(CC(F)F)c2)nn1` [Example 271, N-(1-(2,2-difluoroethyl)-1H-pyrazol-4-yl)-5-(4-propyl-1H-1,2,3-triazol-1-yl)-2-(1H-pyrazolo[3,4-d]pyrimidin-1-yl)pyridin-4-amine] was 108 nM; that for `CCCc1cn(-c2cnc(-n3ncc4cc(C#N)cnc43)cc2N[C@H](C)CO)nn1` [Example 272, (R)-1-(4-((1-hydroxypropan-2-yl)amino)-5-(4-propyl-1H-1,2,3-triazol-1-yl)pyridin-2-yl)-1H-pyrazolo[3,4-b]pyridine-5-carbonitrile] was 529 nM. The value for `CCCc1cn(-c2cnc(-n3ncc4cc(C#N)cnc43)cc2N[C@@H](C)CO)nn1` [Example 273, (S)-1-(4-((1-hydroxypropan-2-yl)amino)-5-(4-propyl-1H-1,2,3-triazol-1-yl)pyridin-2-yl)-1H-pyrazolo[3,4-b]pyridine-5-carbonitrile] was 78 nM; that for `CCCc1cn(-c2cnc(-n3ncc4cc(C#N)cnc43)cc2NC2COC2)nn1` [Example 276, 1-(4-(oxetan-3-ylamino)-5-(4-propyl-1H-1,2,3-triazol-1-yl)pyridin-2-yl)-1H-pyrazolo[3,4-b]pyridine-5-carbonitrile] was 17 nM; that for `CCCc1cn(-c2cnc(-n3cnc4cc(C#N)cnc43)cc2NC2COC2)nn1` [Example 277, 3-(4-(oxetan-3-ylamino)-5-(4-propyl-1H-1,2,3-triazol-1-yl)pyridin-2-yl)-3H-imidazo[4,5-b]pyridine-6-carbonitrile] was 87 nM.

With `CCCc1cn(-c2cnc(-n3cnc4cnc(N)nc43)cc2NC(C)C)nn1` [Example 279, 9-(4-(isopropylamino)-5-(4-propyl-1H-1,2,3-triazol-1-yl)pyridin-2-yl)-9H-purin-2-amine], the IC50 stood at 17 nM. Turning to `CCCc1cn(-c2cnc(-n3cnc4cc(C#N)cnc43)cc2N[C@H](C)CO)nn1` [Example 286, (R)-3-(4-((1-hydroxypropan-2-yl)amino)-5-(4-propyl-1H-1,2,3-triazol-1-yl)pyridin-2-yl)-3H-imidazo[4,5-b]pyridine-6-carbonitrile], the IC50 came to 157 nM. The value for `CCCc1cn(-c2cnc(-n3ncc4cc(C#N)cnc43)cc2NCC(C)(C)O)nn1` [Example 287, 1-(4-((2-hydroxy-2-methylpropyl)amino)-5-(4-propyl-1H-1,2,3-triazol-1-yl)pyridin-2-yl)-1H-pyrazolo[3,4-b]pyridine-5-carbonitrile] was 34 nM; that for `CC(C)Nc1cc(-n2ncc3cc(C#N)cnc32)ncc1-n1cc(CO)nn1` [Example 295, 1-(5-(4-(hydroxymethyl)-1H-1,2,3-triazol-1-yl)-4-(isopropylamino)pyridin-2-yl)-1H-pyrazolo[3,4-b]pyridine-5-carbonitrile] was 48 nM.

As to `CC(C)Nc1cc(-n2ncc3cc(C#N)cnc32)ncc1-n1cc(-c2ccccc2)nn1` [Example 297, 1-(4-(isopropylamino)-5-(4-phenyl-1H-1,2,3-triazol-1-yl)pyridin-2-yl)-1H-pyrazolo[3,4-b]pyridine-5-carbonitrile], the IC50 was determined as 28 nM.
